Read-outs that look alike come from different tables or passages of the source.
What was measured:
ob/ob mice = experiment: ob/ob leptin-deficient genetic mouse model of metabolic syndrome; format: in vivo
Source text: We next sought to confirm our above findings obtained from the diet-induced model of obesity by using the ob/ob leptin-deficient genetic mouse model of metabolic syndrome. […] Additionally, the mRNA expression profiles of glucose- and FA-related genes in liver (Fig. S4D,E) and WAT (Fig. S5) also differed between pioglitazone- and PBI-4547-treated mice.

GPR40 = target: T1, GPR40 (Homo sapiens, UniProt O14842); set-up: method as in PMID 29454750; details: previously reported, cited from earlier work
T1 construct: expressed in transfected cells; host or cells: HEK293

GPR84 = target: T2, GPR84 (Homo sapiens, UniProt Q9NQS5); experiment: BRET Gαi2 activation biosensor in HEK293 cells transfected with GPR84; format: cell-based; details: compound alone vs vehicle
T2 construct: expressed in transfected cells; host or cells: HEK293
Source text: PBI-4547 (2-[3,5-dipentylphenyl]acetate sodium salt) is a medium-chain FA (MCFA) mimetic (Fig. 1A). Accordingly, we examined the signaling properties of PBI-4547 on receptors known to be activated by MCFAs. […] This biosensor consisted of an Rluc8-tagged Gαi2 subunit, a GFP10-tagged Gγ2 subunit, and an untagged Gβ1. Agonist stimulation and receptor activation triggers a physical separation between the Gα-Rluc8 donor and the GFP10-Gγ2 acceptor, resulting in a decrease in BRET signal, whose amplitude is correlated to ligand efficacy. […] (A) Chemical structure of PBI-4547. (B) Gi pathway activation was monitored in HEK293 cells transfected with GPR84 and the Gαi2 activation biosensor. […] (C) β-arrestin 2 recruitment to activated GPR120 receptor was monitored in HEK293 cells transfected with RLuc8-β-arrestin 2 and GPR120-GFP10. (D) Cells transfected with GPR40 and Gαq or Gαi2 activation biosensor were exposed to increasing concentrations of PBI-4547 or to 500 µM of sodium decanoate, and BRET variation compared with vehicle was measured. Cells were exposed to increasing concentrations of PBI-4547 or to 100 µM of GW9508, and BRET variation compared with vehicle was measured. (E) LanthaScreen TR-FRET competitive binding assay of PBI-4547 and PPAR control agonists to the LBD of PPARα, PPARδ and PPARγ. (F) Cell-based GAL4 transactivation assay in HEK293 cells transfected with the LBD of PPARα, PPARδ or PPARγ, and treated with increasing concentrations of PBI-4547 or PPAR control agonists. Data in (B–D) are expressed as means ± SEM of 4–5 experiments; data in (E,F) are from a representative experiment from a total of 3 to 4 independent experiments. BRET measurements in transiently transfected HEK293 cells were performed as previously described. Ligands were incubated with cells at room temperature for 10 min (G protein biosensors) or 25 min (β-arrestin/GPR120) before collecting BRET[2] readings between Rluc8 and GFP10.

T1 sequence (O14842 whole entry, species assumed): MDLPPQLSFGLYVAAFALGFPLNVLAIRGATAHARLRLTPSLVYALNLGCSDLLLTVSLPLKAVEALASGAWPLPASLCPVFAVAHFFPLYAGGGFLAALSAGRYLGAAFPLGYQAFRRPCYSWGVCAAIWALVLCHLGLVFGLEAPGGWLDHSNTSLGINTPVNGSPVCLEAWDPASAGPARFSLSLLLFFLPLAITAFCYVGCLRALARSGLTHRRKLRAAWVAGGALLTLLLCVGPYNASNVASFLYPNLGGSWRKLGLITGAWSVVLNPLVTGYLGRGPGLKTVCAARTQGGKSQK
T2 sequence (Q9NQS5 whole entry, species assumed): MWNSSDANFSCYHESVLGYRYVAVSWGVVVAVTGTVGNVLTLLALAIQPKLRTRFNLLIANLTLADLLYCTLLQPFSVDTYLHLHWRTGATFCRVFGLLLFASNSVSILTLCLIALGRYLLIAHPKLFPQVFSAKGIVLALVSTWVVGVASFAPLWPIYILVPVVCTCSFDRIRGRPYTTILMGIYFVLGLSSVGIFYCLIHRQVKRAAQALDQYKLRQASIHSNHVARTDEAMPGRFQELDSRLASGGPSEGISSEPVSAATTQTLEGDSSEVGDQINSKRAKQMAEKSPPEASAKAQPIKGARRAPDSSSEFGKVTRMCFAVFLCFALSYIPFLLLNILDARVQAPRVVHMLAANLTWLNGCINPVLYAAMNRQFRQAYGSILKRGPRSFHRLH

GPR84/Gαi2-mediated BRET signal modulation (agonist mode) (GPR84) | Structure (SMILES) | bodyweight (ob/ob mice) | EC50 (GPR40; Gαi2, read-out: EC50, GPR40 Gαi2) [µM] | EC50 (GPR40; Gαq, read-out: EC50, GPR40 Gαq) [µM]
 | CCc1ccc(CCOc2ccc(CC3SC(=O)NC3=O)cc2)nc1 (stereo not shown) [pioglitazone, reference compound] | increased trend towards weight gain |  | 
induced a BRET signal decrease | CCCCCCCCCC(=O)[O-].[Na+] [sodium decanoate] |  | 16 | 102
